# In the supplement of paper PMC11208160:
# Assay: recombinant UMI read abundance after kanamycin selection (control-corrected) (log10(CPM+1)); higher = more efficient recombination; extreme values may be limits of the assay; sequences stand for … in AGTGCAGAGAAAATCGGCCAGTTTTCTCTGCCTGCAGTCCGCATGCCGTGGGACCCCTTGGGTTCTAACCTGTTGCCTAGATTTATGCAGCGGACTGCCTTTCTCCCAAAGTGATAAACCGG…AGGTTGGTTTCACT; site = the 11-nt donor
# How it was run: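 Counts of recombinant UMIs were reported as log10(CPM+1). Before that, they were converted to CPM, averaged over replicates and scaled using control-derived factors. They came from PCR across the donor–target junction after Escherichia coli carrying the pair library and target plasmid was plated on IPTG (0.07 mM) plus kanamycin, or unselected, in two replicates each.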
# 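Further: IS621 bridge recombinase in Escherichia coli cells against a fixed T5 target plasmid.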
row,Sequence,recombinant UMI read abundance (log10)
1,CCTAATACATGGACCGGTTTTCCCGGTAATCCGTATTTGCC (site CCTAATACTGG),0
2,CCTAATACATGGACCGGTTTTCCCGGTAATCCGTATTTGCC (site CCTAATACTGT),0
3,CCTAATACATGGACCGGTTTTCCCGGTAATCCGTATTTGGA (site CCTAATACTAC),0
4,CCTAATACATGGACCGGTTTTCCCGGTAATCCGTATTTGGA (site CCTAATACTCC),0.00642
5,CCTAATACATGGACCGGTTTTCCCGGTAATCCGTATTTGGA (site CCTAATACTGC),0
6,CCTAATACATGGACCGGTTTTCCCGGTAATCCGTATTTGGA (site CCTAATACTTC),0.00465
7,CCTAATACATGGACCGGTTTTCCCGGTAATCCGTATTTGGG (site CCTAATACTAC),0
8,CCTAATACATGGACCGGTTTTCCCGGTAATCCGTATTTGGG (site CCTAATACTCC),0.011
9,CCTAATACATGGACCGGTTTTCCCGGTAATCCGTATTTGGG (site CCTAATACTGC),0
10,CCTAATACATGGACCGGTTTTCCCGGTAATCCGTATTTGGG (site CCTAATACTTC),0.0102
11,CCTAATGCATGGACCGGTTTTCCCGGTAATCCGTATTTGAT (site CCTAAAGCTAT),0
12,CCTAATGCATGGACCGGTTTTCCCGGTAATCCGTATTTGAT (site CCTAACGCTAT),0.00278
13,CCTAATGCATGGACCGGTTTTCCCGGTAATCCGTATTTGAT (site CCTAAGGCTAT),0
14,CCTAATGCATGGACCGGTTTTCCCGGTAATCCGTATTTGAT (site CCTAATGCTAT),0
15,CCTACGCCATGGACCGGTTTTCCCGGTAATCCGTATTTGAA (site CCTACGCCTTT),0.0231
16,CCTACTGCATGGACCGGTTTTCCCGGTAATCCGTATTTGCC (site ACTACTGCTGG),0
17,CCTACTGCATGGACCGGTTTTCCCGGTAATCCGTATTTGCC (site CCTACTGCTGG),0.191
18,CCTACTGCATGGACCGGTTTTCCCGGTAATCCGTATTTGCC (site GCTACTGCTGG),0
19,CCTACTGCATGGACCGGTTTTCCCGGTAATCCGTATTTGCC (site TCTACTGCTGG),0

row,Sequence,recombinant UMI read abundance (log10)
1,CCTCAAGCATGGACCGGTTTTCCCGGTAATCCGTATTTGAT (site CCTAAAGCTAT),0
2,CCTCAAGCATGGACCGGTTTTCCCGGTAATCCGTATTTGAT (site CCTCAAGCTAT),0.0413
3,CCTCAAGCATGGACCGGTTTTCCCGGTAATCCGTATTTGAT (site CCTGAAGCTAT),0.00432
4,CCTCAAGCATGGACCGGTTTTCCCGGTAATCCGTATTTGAT (site CCTTAAGCTAT),0
5,CCTCACTCATGGACCGGTTTTCCCGGTAATCCGTATTTGCT (site CCTCACTCTAG),0.747
6,CCTCCGGCATGGACCGGTTTTCCCGGTAATCCGTATTTGGT (site CCTCCGGCTAC),0.0132
7,CCTCGATCATGGACCGGTTTTCCCGGTAATCCGTATTTGGC (site CCTCGATCTGC),0
8,CCTCGGACATGGACCGGTTTTCCCGGTAATCCGTATTTGGT (site CCTCGGACTAC),0.013
9,CCTCGTACATGGACCGGTTTTCCCGGTAATCCGTATTTGAG (site CCTCGTACTCT),0.0191
10,CCTGCAGCATGGACCGGTTTTCCCGGTAATCCGTATTTGGC (site CCTGCAGCTGC),0
11,CCTGGTTCATGGACCGGTTTTCCCGGTAATCCGTATTTGAC (site CCTGGTTCTGT),0
12,CCTGTCGCATGGACCGGTTTTCCCGGTAATCCGTATTTGAA (site CCTGTCGCTTT),0.0175
13,CCTGTCGCATGGACCGGTTTTCCCGGTAATCCGTATTTGAC (site CCTGTCGCTGT),0
14,CCTTAACCATGGACCGGTTTTCCCGGTAATCCGTATTTGCT (site CCTTAACCTAG),0
15,CCTTACGCATGGACCGGTTTTCCCGGTAATCCGTATTTGGC (site CCTTACGCTGC),0
16,CCTTATACATGGACCGGTTTTCCCGGTAATCCGTATTTGGG (site CCTTATACTCC),0.016
17,CCTTATACATGGACCGGTTTTCCCGGTAATCCGTATTTGGT (site CCTTATACTAC),0.00722
18,CCTTCTGCATGGACCGGTTTTCCCGGTAATCCGTATTTGGA (site CCTTCTGCTTC),0.00377
